According to patent US6500849B1, “1-alkyl-, 1-alkenyl-, and 1-alkynylaryl-2-amino 1,3-propanediols and related compounds” (Aventis Pharmaceuticals Inc., priority 1990, dated 2002):
Values after ≈ are worked out from the molar mass of the structure shown. Read-outs that look alike come from different tables or passages of the source.

Key:
E. coli = experiment: Aerobic antibacterial assay (agar dilution, Mueller-Hinton agar); type: cell-based; details: Escherichia coli, 24 h, read-out: Antibacterial activity (MIC, mg/l)
Bact. fragilis = experiment: Anerobic antibacterial assay (agar dilution, Wilkins-Chalgren agar); type: cell-based; details: Bacteroides fragilis, anaerobic, 48 hours at 37° C.
Bact. ovatus = experiment: as above; type: cell-based; details: Bacteroides ovatus; Bact. ovatus 103; anaerobic; 48 hours at 37° C.; read-out: Antibacterial activity (MIC, mg/l)
Bact. vulgatus = experiment: as above; type: cell-based; details: Phocaeicola vulgatus, 48 h, read-out: Antibacterial activity (MIC, mg/l)
Bact. thetaiotaom. = experiment: as above; type: cell-based; details: anaerobic, 48 hours at 37° C.
Bact. distasonis = experiment: as above; type: cell-based; details: Parabacteroides distasonis, 48 h, read-out: Antibacterial activity (MIC, mg/l)
Fusobact. varium = experiment: as above; type: cell-based; details: 48 h, read-out: Antibacterial activity (MIC, mg/l)
Spaeroph. freundii = experiment: as above; type: cell-based; details: 48 h, read-out: Antibacterial activity (MIC, mg/l)
Peptostr. anaerobius = experiment: as above; type: cell-based; details: 48 h, read-out: Antibacterial activity (MIC, mg/l)
Propionibact. acnes = experiment: as above; type: cell-based; details: 48 h, read-out: Antibacterial activity (MIC, mg/l)
Clost. tetani = experiment: as above; type: cell-based; details: Clostridium tetani, 48 h, read-out: Antibacterial activity (MIC, mg/l)
Clost. perfringens = experiment: microbe, parasite or virus in culture; type: cell-based; details: Clostridium perfringens, 48 h, read-out: Antibacterial activity (MIC, mg/l)
Aspergillus Niger = experiment: Antifungal assay (microtitration technique); type: cell-based; details: 120 h; Aspergillus Niger strain 500/284; 5 days at 30° C.
Protocol: (§1) The microtiter plate is prepared as follows: The wells are each filled (2 rows/strain) with 50 μl neopeptone-dextrose broth (12-channel pipette). In addition, one row/strain is coated with 50 μl yeast-nitrogen base/well for yeasts and moulds. […] All wells are then inoculated with 150 μl standardized organism suspension (yeasts: 1×10^3 organisms/ml suspension; cutaneous fungi and moulds: 1.6×10^5 organisms/ml suspension); the total volume is 200 μl per well. There is also a growth control (inoculated, not medicated), a solvent control (inoculated, not medicated, containing solvent as in medicated rows) and a negative control (not inoculated, not medicated). Incubation for 5 days at 30° C. is followed by photometric evaluation. The obtained measurements are checked visually (macroscopically and microscopically) and corrected where necessary. Criteria for Evaluation of the Antimycotic Effect a. Photometric measurements (matrix method) b. Growth, macroscopic evaluation c. Growth, microscopic evaluation (inversion light microscope, magn. 64×).

Candida Albicans = experiment: Antifungal assay (microtitration technique); type: cell-based; details: 120 h; Candida Albicans strain 200/175; 5 days at 30° C.
Protocol: as §1

Microsporum Canis = experiment: Antifungal assay (microtitration technique); type: cell-based; details: 120 h; Microsporum Canis strain 150/353; 5 days at 30° C.
Protocol: as §1

[1] = system: Trichophyton Mentagrophytes; experiment: Antifungal assay (microtitration technique); type: cell-based; details: 120 h; Trichophyton Mentagrophytes strain 100/25; 5 days at 30° C.
Protocol: as §1

Trichophyton Rubrum = experiment: Antifungal assay (microtitration technique); type: cell-based; details: 120 h; Trichophyton Rubrum strain 101/85; 5 days at 30° C.
Protocol: as §1

Trichophyton Vaginalis = experiment: Antifungal assay (microtitration technique); type: cell-based; details: 120 h; Trichophyton Vaginalis strain 111/216; 5 days at 30° C.
Protocol: as §1

Staph. aureus = experiment: Aerobic antibacterial assay (agar dilution, Mueller-Hinton agar); details: Staphylococcus aureus, 24 h
Strept. pyogenes = experiment: as above; details: Streptococcus pyogenes, 24 h, read-out: Antibacterial activity (MIC, mg/l)
Strept. faecium = experiment: as above; details: Enterococcus faecium, 24 h, read-out: Antibacterial activity (MIC, mg/l)
S. typhimurium = experiment: as above; details: Salmonella enterica, TYPHIMURIUM, 24 h, read-out: Antibacterial activity (MIC, mg/l)
Klebsiella spp. = experiment: as above; details: Klebsiella, 24 h, read-out: Antibacterial activity (MIC, mg/l)
E. cloacae = experiment: as above; details: Enterobacter cloacae, 24 h, read-out: Antibacterial activity (MIC, mg/l)

For CCCCCCCCCCc1cccc(C(O)C(N)CO)n1 (stereo not drawn) [erythro-2-Amino-1-(6-Decyl-2-pyridinyl)-1,3-dihydroxypropane], the MIC (E. coli; E. coli 1507E, 24 hours at 37° C.) was 12.5 mg/L (≈ 40.5 µM), the MIC (E. coli; E. coli DC0, 24 hours at 37° C.) was 12.5 mg/L (≈ 40.5 µM) and the MIC (E. coli; E. coli DC2, 24 hours at 37° C.) was 6.25 mg/L (≈ 20.3 µM). It also gave an MIC (E. coli; E. coli O 78, 24 hours at 37° C.) of 12.5 mg/L (≈ 40.5 µM), an MIC (E. coli; E. coli TEM, 24 hours at 37° C.) of 25 mg/L (≈ 81 µM) and an MIC (Bact. fragilis; 48 h, read-out: Antibacterial activity (MIC, mg/l), Bact. fragilis 312) of 12.5 mg/L (≈ 40.5 µM). It also gave an MIC (Bact. fragilis; 48 h, read-out: Antibacterial activity (MIC, mg/l), Bact. fragilis 1313) of 12.5 mg/L (≈ 40.5 µM), an MIC (Bact. fragilis; 48 h, read-out: Antibacterial activity (MIC, mg/l), Bact. fragilis 17390) of 12.5 mg/L (≈ 40.5 µM) and an MIC (Bact. fragilis; 48 h, read-out: Antibacterial activity (MIC, mg/l), Bact. fragilis 18125) of 12.5 mg/L (≈ 40.5 µM). For the same compound, the MIC (Bact. fragilis; 48 h, read-out: Antibacterial activity (MIC, mg/l), Bact. fragilis 19016) was 12.5 mg/L (≈ 40.5 µM), the MIC (Bact. fragilis; Bact. fragilis 960, read-out: Antibacterial activity (MIC, mg/l)) was 6.25 mg/L (≈ 20.3 µM) and the MIC (Bact. ovatus) was 6.25 mg/L (≈ 20.3 µM). The MIC (Bact. vulgatus) was 12.5 mg/L (≈ 40.5 µM), the MIC (Bact. thetaiotaom.; 48 h, read-out: Antibacterial activity (MIC, mg/l), Bact. thetaiotaom. 1428) was 12.5 mg/L (≈ 40.5 µM) and the MIC (Bact. thetaiotaom.; 48 h, read-out: Antibacterial activity (MIC, mg/l), Bact. thetaiotaom. 1445) was 12.5 mg/L (≈ 40.5 µM). For the same compound, the MIC (Bact. thetaiotaom.; Bact. thetaiotaom. 123, read-out: Antibacterial activity (MIC, mg/l)) was 6.26 mg/L (≈ 20.3 µM), the MIC (Bact. distasonis) was 12.5 mg/L (≈ 40.5 µM) and the MIC (Fusobact. varium) was 12.5 mg/L (≈ 40.5 µM). For the same compound, the MIC (Spaeroph. freundii) was 12.5 mg/L (≈ 40.5 µM), the MIC (Peptostr. anaerobius) was 12.5 mg/L (≈ 40.5 µM) and the MIC (Propionibact. acnes) was 12.5 mg/L (≈ 40.5 µM). For the same compound, the MIC (Clost. tetani) was 12.5 mg/L (≈ 40.5 µM), the MIC (Clost. perfringens) was 12.5 mg/L (≈ 40.5 µM) and the MIC (Aspergillus Niger) was 31.2 µg/mL (≈ 101 µM). For the same compound, the MIC (Candida Albicans) was 31.2 µg/mL (≈ 101 µM), the MIC (Microsporum Canis) was 31.2 µg/mL (≈ 101 µM) and the MIC [1] was 31.2 µg/mL (≈ 101 µM). The MIC (Trichophyton Rubrum) was 31.2 µg/mL (≈ 101 µM), the MIC (Trichophyton Vaginalis) was 15.6 µg/mL (≈ 50.7 µM) and the MIC (Staph. aureus; read-out: Antibacterial activity (MIC, mg/l)) was 6.25 mg/L (≈ 20.3 µM). The MIC (Staph. aureus; read-out: Antibacterial activity (MIC, mg/l), Staph. aureus 285, aerobic, 24 hours at 37° C.) was 12.5 mg/L (≈ 40.5 µM), the MIC (Staph. aureus; read-out: Antibacterial activity (MIC, mg/l), Staph. aureus SG511, aerobic, 24 hours at 37° C.) was 12.5 mg/L (≈ 40.5 µM) and the MIC (Strept. pyogenes) was 6.25 mg/L (≈ 20.3 µM). It also gave an MIC (Strept. faecium) of 12.5 mg/L (≈ 40.5 µM), an MIC (S. typhimurium) of 12.5 mg/L (≈ 40.5 µM) and an MIC (Klebsiella spp.) of 12.5 mg/L (≈ 40.5 µM). For the same compound, the MIC (E. cloacae) was 12.5 mg/L (≈ 40.5 µM).
